These results are taken from ChEMBL document CHEMBL4680144, “N-thiadiazole-4-hydroxy-2-quinolone-3-carboxamides bearing heteroaromatic rings as novel antibacterial agents: Design, synthesis, biological evaluation and target identification” (Eur J Med Chem, 2020).

SMILES strings stand for the structures. Values after ≈ are worked out from the molar mass of the structure shown.

One assay relates to Staphylococcus aureus. In words: Antibacterial activity against wild type methicillin-sensitive Staphylococcus aureus ATCC 29213 assessed as inhibition of bacterial growth incubated for 18 to 24 hrs by broth microdilution method. The format is functional. The note with it: time 18-24 hrs.
Assay [1] can be described thus: Inhibition of Staphylococcus aureus Gyrase B using linear pBR322 DNA as substrate incubated for 30 mins in presence of ATP by ADP-Glo assay. (ADP-Glo turns the ADP formed in a reaction into a luminescent signal.)

As a reminder, the MIC is the smallest concentration in the dilution series that meets the test's criterion for growth inhibition. What is called IC50 is the point on the concentration scale where inhibition reaches its midpoint. With `CCn1c(=O)c(C(=O)Nc2nnc(-c3ccc(Br)cc3)s2)c(O)c2ccccc21`, in the assay with Staphylococcus aureus, the MIC is 12.5 µg/mL (≈ 26.5 µM). For the same compound, the IC50 in assay [1] turned out to be 2190 nM.
`CCn1c(=O)c(C(=O)Nc2nnc(-c3ccccc3OC)s2)c(O)c2ccccc21`: the MIC in the assay on Staphylococcus aureus stood at 3.12 µg/mL (≈ 7.39 µM). In assay [1], the IC50 was found to be 760 nM.
The corresponding values for `CCn1c(=O)c(C(=O)Nc2nnc(-c3ccccc3F)s2)c(O)c2ccccc21` are 12.5 µg/mL (≈ 30.5 µM) and 990 nM.
Taken in the same sequence, the figures for `CCn1c(=O)c(C(=O)Nc2nnc(-c3ccc(Cl)cc3)s2)c(O)c2ccccc21` were 12.5 µg/mL (≈ 29.3 µM) and 1460 nM.
Taken in the same sequence, the figures for `CCn1c(=O)c(C(=O)Nc2nnc(-c3ccc([N+](=O)[O-])cc3)s2)c(O)c2ccccc21` were 50 µg/mL (≈ 114 µM) and 1610 nM.
Turning to `Cn1c(=O)c(C(=O)Nc2nncs2)c(O)c2ccccc21`, the MIC in the assay with Staphylococcus aureus was determined as 6.25 µg/mL (≈ 20.7 µM). In addition, the IC50 in assay [1] is 190 nM.
The corresponding values for `CCn1c(=O)c(C(=O)Nc2nnc(-c3cccs3)s2)c(O)c2ccccc21` are 3.12 µg/mL (≈ 7.83 µM) and 220 nM.
The corresponding values for `CCn1c(=O)c(C(=O)Nc2nnc(-c3ccc(C)cc3)s2)c(O)c2ccccc21` are 6.25 µg/mL (≈ 15.4 µM) and 640 nM.
The corresponding values for `CCn1c(=O)c(C(=O)Nc2nnc(-c3ccc(F)cc3)s2)c(O)c2ccccc21` are 25 µg/mL (≈ 60.9 µM) and 2300 nM.
As for `CCOc1ccc(-c2nnc(NC(=O)c3c(O)c4ccccc4n(CC)c3=O)s2)cc1`, the MIC in the assay on Staphylococcus aureus was determined as 100 µg/mL (≈ 229 µM). Besides, the 50% inhibitory concentration (IC50) in assay [1] was 2300 nM.
Regarding `CCn1c(=O)c(C(=O)Nc2nnc(-c3ccc(OC(F)F)cc3)s2)c(O)c2ccccc21`, the MIC with Staphylococcus aureus worked out at 12.5 µg/mL (≈ 27.3 µM). The IC50 in assay [1] came out at 1420 nM.
The corresponding values for `CCn1c(=O)c(C(=O)Nc2nnc(-c3ccccc3C)s2)c(O)c2ccccc21` are 50 µg/mL (≈ 123 µM) and 3180 nM.
The corresponding values for `CCn1c(=O)c(C(=O)Nc2nnc(-c3cccc(C)c3)s2)c(O)c2ccccc21` are 12.5 µg/mL (≈ 30.8 µM) and 1750 nM.
Taken in the same sequence, the figures for `CCn1c(=O)c(C(=O)Nc2nnc(C3CCCCC3)s2)c(O)c2ccccc21` were 12.5 µg/mL (≈ 31.4 µM) and 550 nM.
Turning to `CCCn1c(=O)c(C(=O)Nc2nncs2)c(O)c2ccccc21`, in the assay on Staphylococcus aureus, the MIC is 3.12 µg/mL (≈ 9.44 µM). Besides, the IC50 in assay [1] amounted to 460 nM.
